# Experimental data: patent US8470812B2, “Substituted benzo-pyrimido-tetrazolo-diazepine compounds” (ArQule, Inc., priority 2009, dated 2013)
# Where a name gives a salt, the structure may show the parent alone.
# What was measured:
# CaMK2α = CaMK2α (Homo sapiens, UniProt Q9UQM7); assay: CaMKII kinase activity, mobility shift assay (MSA); type: biochemical; conditions: 10 μM compound; ATP 50, GS peptide 1 uM; read-out: CaMK2α inh. @ 10 μM (%)
# Method: (§1) CAMKII and CDK7 activity was assayed using a mobility shift assay (MSA). Test inhibitors and controls (staurosporine) were prepared at 4× the desired final concentration. Test compound (5.0 μL), 4× substrate/ATP/metal solution (5.0 μL), and 2× kinase (10 μL) were added to each well of a reaction plate and incubated for 1 hr at room temperature. The assay components were diluted in assay buffer (20 mM HEPES pH 7.5, 0.01% Triton X-100, 2 mM DTT). To terminate the reaction, 60 μL of termination buffer (QuickScout Screening Assist MSA, Carna Biosciences) was added to each well. The reaction mixture was applied to the LabChip3000 system (Caliper Life Sciences) and the product and substrate peptide peaks were separated and quantified.
# CaMK2β = CaMK2β (Homo sapiens, UniProt Q13554); assay: CaMKII kinase activity, mobility shift assay (MSA); type: biochemical; conditions: 10 μM compound; ATP 25, GS peptide 1 uM; read-out: CaMK2β inh. @ 10 μM (%)
# Method: as §1
# CaMK2γ = CaMK2γ (Homo sapiens, UniProt Q13555); assay: CaMKII kinase activity, mobility shift assay (MSA); type: biochemical; conditions: 10 μM compound; ATP 25, GS peptide 1 uM; read-out: CaMK2γ inh. @ 10 μM (%)
# Method: as §1
# CaMK2δ = CaMK2δ (Homo sapiens, UniProt Q13557); assay: CaMKII kinase activity, mobility shift assay (MSA); type: biochemical; conditions: 10 μM compound; ATP 5, GS peptide 1 uM; read-out: CaMK2δ inh. @ 10 μM (%)
# Method: as §1
# DLD-1 cancer cells = assay: MTS assay, cell growth inhibition; type: cell-based; conditions: DLD-1 cells, 72 h incubation; test concentration not given
# Method: (§2) Cells were maintained at 37° C., 5% CO2 in DMEM media supplemented with 1% fetal bovine serum, penicillin/streptomycin and fungizone (Invitrogen). Cells were seeded into 96-well tissue culture plates at 3000 per well and cultured at 37° C. for 18 hours. Test compounds were dissolved and diluted to 300× in DMSO then diluted 1:40 in DMEM. Cells were incubated with test compounds for 72 hours followed by incubation with tetrazolium compound (3-(4,5-dimethylthiazol-2-yl)-5-(3-carboxymethoxyphenyl)-2-(4-sulfophenyl)-2H-tetrazolium, inner salt; MTS) and the electron coupling reagent, phenazine methosulfate (PMS) for 4 hours. […] The ability of compounds to inhibit cell growth in this assay is correlated with the reduction of dehydrogenase enzyme activity found in metabolically active cells. The measurement of the absorbance of the formazan was assessed using a Victor (Perkin Elmer) microplate reader at 492 nm. The calculated IC50 value is the concentration of the test compound that causes a 50% decrease in the absorbance. Selected compounds have been tested in DLD-1 and MDA-MB-231 cancer cells.
# MDA-MB-231 cancer cells = assay: MTS assay, cell growth inhibition; type: cell-based; conditions: MDA-MB-231 cells, 72 h incubation; test concentration not given
# Method: as §2
# CDK7 = CDK7 (Homo sapiens, UniProt P50613); assay: CDK7 kinase activity, mobility shift assay (MSA); type: biochemical; conditions: 10 μM compound; ATP 50, CTD3 peptide 1 uM; read-out: CDK7 inh. @ 10 μM (%)
# CDK7, sequence (P50613 whole entry, species assumed): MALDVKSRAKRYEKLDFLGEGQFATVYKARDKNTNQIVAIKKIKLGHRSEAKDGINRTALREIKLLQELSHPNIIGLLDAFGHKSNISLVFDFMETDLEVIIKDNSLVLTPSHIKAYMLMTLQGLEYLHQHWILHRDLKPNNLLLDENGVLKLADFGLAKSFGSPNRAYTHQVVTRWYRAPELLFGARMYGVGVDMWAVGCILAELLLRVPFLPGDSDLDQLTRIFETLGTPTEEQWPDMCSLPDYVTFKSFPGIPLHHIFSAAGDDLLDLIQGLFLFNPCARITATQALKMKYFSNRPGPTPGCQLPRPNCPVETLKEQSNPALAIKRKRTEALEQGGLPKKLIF
# CDK7, sequence (P51946 whole entry partner, species assumed): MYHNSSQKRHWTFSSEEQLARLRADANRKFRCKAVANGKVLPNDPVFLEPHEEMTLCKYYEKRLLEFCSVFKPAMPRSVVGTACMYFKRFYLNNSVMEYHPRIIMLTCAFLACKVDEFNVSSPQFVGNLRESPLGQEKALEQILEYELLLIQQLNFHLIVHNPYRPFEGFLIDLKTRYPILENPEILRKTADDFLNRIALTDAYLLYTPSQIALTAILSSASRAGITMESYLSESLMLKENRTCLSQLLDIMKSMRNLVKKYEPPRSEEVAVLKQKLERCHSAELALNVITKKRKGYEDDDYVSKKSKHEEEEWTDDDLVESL
# CDK7, sequence (P51948 whole entry partner, species assumed): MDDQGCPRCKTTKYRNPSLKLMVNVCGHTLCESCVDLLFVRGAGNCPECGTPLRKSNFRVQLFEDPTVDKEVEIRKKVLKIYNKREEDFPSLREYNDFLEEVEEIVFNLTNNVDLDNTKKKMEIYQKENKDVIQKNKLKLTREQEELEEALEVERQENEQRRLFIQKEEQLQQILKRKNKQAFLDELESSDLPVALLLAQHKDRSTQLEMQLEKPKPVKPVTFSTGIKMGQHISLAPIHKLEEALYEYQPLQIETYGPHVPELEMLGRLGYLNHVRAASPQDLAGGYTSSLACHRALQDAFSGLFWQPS
# Method: as §1
Compound,"DLD-1, MTS, 72 h (% Inhibition) (DLD-1 cancer cells) [%]","MDA-MB-231, MTS, 72 h (% Inhibition) (MDA-MB-231 cancer cells) [%]",other results
"CN1CCN(c2ncc3c(n2)N(Cc2ccc(F)c(F)c2)c2ccccc2-n2nnnc2-3)CC1 (as salt: HCl) [Compound 14, 9-(3,4-difluorobenzyl)-11-(4-methylpiperazin-1-yl)-9H-pyrimido[5,4-c]tetrazolo[1,5-a][1,5]benzodiazepine]",,,melting point: 180 to 191 °C
"Fc1ccc(CN2c3ccccc3-n3nnnc3-c3cnc(NCc4cccnc4)nc32)cc1F [Compound 16, 9-(3,4-difluorobenzyl)-N-(pyridin-3-ylmethyl)-9H-pyrimido[5,4-c]tetrazolo[1,5-a][1,5]benzodiazepin-11-amine]",38,30,inhibition at 10 µM (CaMK2α): 67%; inhibition at 10 µM (CaMK2β): 41%; inhibition at 10 µM (CaMK2γ): 11%; inhibition at 10 µM (CaMK2δ): 65%
"CC(C)(C)OC(=O)NC1CCCN(c2ncc3c(n2)N(Cc2ccc(F)c(F)c2)c2ccccc2-n2nnnc2-3)C1 (centres unmarked) [Compound 21, tert-butyl {1-[9-(3,4-difluorobenzyl)-9H-pyrimido[5,4-c]tetrazolo[1,5-a][1,5]benzodiazepin-11-yl]piperidin-3-yl}carbamate]",97,97,
"c1ccc2c(c1)CCCC2Nc1ncc2c(n1)Nc1ccccc1-n1nnnc1-2 (centres unmarked) [Compound 77, N-(1,2,3,4-tetrahydronaphthalen-1-yl)-9H-pyrimido[5,4-c]tetrazolo[1,5-a][1,5]benzodiazepin-11-amine]",97,86,
"Clc1ccc(CNc2ncc3c(n2)Nc2ccccc2-n2nnnc2-3)cc1 [Compound 58, N-(4-chlorobenzyl)-9H-pyrimido[5,4-c]tetrazolo[1,5-a][1,5]benzodiazepin-11-amine]",97,98,
"CN1CCN(c2ncc3c(n2)N(Cc2ccc(F)c(F)c2)c2ccccc2-n2nnnc2-3)CC1 [Compound 14, 9-(3,4-difluorobenzyl)-11-(4-methylpiperazin-1-yl)-9H-pyrimido[5,4-c]tetrazolo[1,5-a][1,5]benzodiazepine]",49,58,inhibition at 10 µM (CaMK2α): 96%; inhibition at 10 µM (CaMK2β): 88%; inhibition at 10 µM (CaMK2γ): 80%; inhibition at 10 µM (CaMK2δ): 96%
"c1ccc2c(c1)Nc1nc(NCC3CC3)ncc1-c1nnnn1-2 [Compound 9, N-(cyclopropylmethyl)-9H-pyrimido[5,4-c]tetrazolo[1,5-a][1,5]benzodiazepin-11-amine]",98,92,
"CC(Nc1ncc2c(n1)Nc1ccccc1-n1nnnc1-2)c1ccc(Cl)cc1 (centres unmarked) [Compound 52, N-[1-(4-chlorophenyl)ethyl]-9H-pyrimido[5,4-c]tetrazolo[1,5-a][1,5]benzodiazepin-11-amine]",97,98,
"CC(C)CC(C)Nc1ncc2c(n1)Nc1ccccc1-n1nnnc1-2 (centres unmarked) [Compound 63, N-(1,3-dimethylbutyl)-9H-pyrimido[5,4-c]tetrazolo[1,5-a][1,5]benzodiazepin-11-amine]",90,32,
"CC(C)(C)OC(=O)N1CCN(c2ncc3c(n2)N(Cc2ccc(F)c(F)c2)c2ccccc2-n2nnnc2-3)CC1 [Compound 22, tert-butyl 4-[9-(3,4-difluorobenzyl)-9H-pyrimido[5,4-c]tetrazolo[1,5-a][1,5]benzodiazepin-11-yl]piperazine-1-carboxylate]",95,93,
"c1ccc2c(c1)Nc1nc(NCCc3ccncc3)ncc1-c1nnnn1-2 [Compound 40, N-(2-pyridin-4-ylethyl)-9H-pyrimido[5,4-c]tetrazolo[1,5-a][1,5]benzodiazepin-11-amine]",98,65,
"Fc1ccccc1CNc1ncc2c(n1)Nc1ccccc1-n1nnnc1-2 [Compound 88, N-(2-fluorobenzyl)-9H-pyrimido[5,4-c]tetrazolo[1,5-a][1,5]benzodiazepin-11-amine]",96,41,
"COc1cc(CNc2ncc3c(n2)Nc2ccccc2-n2nnnc2-3)cc(OC)c1 [Compound 24, N-(3,5-dimethoxybenzyl)-9H-pyrimido[5,4-c]tetrazolo[1,5-a][1,5]benzodiazepin-11-amine]",95,33,
"Fc1ccc(CN2c3ccccc3-n3nnnc3-c3cnc(NCc4ccncc4)nc32)cc1F [Compound 20, 9-(3,4-difluorobenzyl)-N-(pyridin-4-ylmethyl)-9H-pyrimido[5,4-c]tetrazolo[1,5-a][1,5]benzodiazepin-11-amine]",102,102,
"Fc1ccc(CN2c3ccccc3-n3nnnc3-c3cnc(NCCN4CCOCC4)nc32)cc1F [Compound 18, 9-(3,4-difluorobenzyl)-N-(2-morpholin-4-ylethyl)-9H-pyrimido[5,4-c]tetrazolo[1,5-a][1,5]benzodiazepin-11-amine]",,,inhibition at 10 µM (CaMK2α): 42%; inhibition at 10 µM (CaMK2β): 23%; inhibition at 10 µM (CaMK2γ): 12%; inhibition at 10 µM (CaMK2δ): 32%; inhibition at 10 µM (CDK7): 84%
"CCCNc1ncc2c(n1)Nc1ccccc1-n1nnnc1-2 [Compound 41, N-propyl-9H-pyrimido[5,4-c]tetrazolo[1,5-a][1,5]benzodiazepin-11-amine]",97,98,
"CC(Nc1ncc2c(n1)Nc1ccccc1-n1nnnc1-2)c1ccccc1 (centres unmarked) [Compound 51, N-(1-phenylethyl)-9H-pyrimido[5,4-c]tetrazolo[1,5-a][1,5]benzodiazepin-11-amine]",96,98,
"c1ccc2c(c1)Nc1nc(NC3CCC3)ncc1-c1nnnn1-2 [Compound 85, N-cyclobutyl-9H-pyrimido[5,4-c]tetrazolo[1,5-a][1,5]benzodiazepin-11-amine]",97,99,
"Fc1ccc(CN2c3ccccc3-n3nnnc3-c3cnc(N4CCOCC4)nc32)cc1F [Compound 13, 9-(3,4-difluorobenzyl)-11-morpholin-4-yl-9H-pyrimido[5,4-c]tetrazolo[1,5-a][1,5]benzodiazepine]",97,98,
"Fc1ccc(F)c(CNc2ncc3c(n2)Nc2ccccc2-n2nnnc2-3)c1 [Compound 59, N-(2,5-difluorobenzyl)-9H-pyrimido[5,4-c]tetrazolo[1,5-a][1,5]benzodiazepin-11-amine]",97,71,
